Patent US20200352918A1, “COMPOUNDS AND METHODS FOR TREATING OR PREVENTING FIBROSIS” (priority 2019, published 2020)

Key:
Type in all cases: cell-based, human
iFA model = assay: Fibrotic marker, cytokine and repair modulator expression in the iFA model (qPCR, immunoblotting, luminex, immunofluorescence)
Method: (§1) The Milliplex human cytokine/chemokine Panel IV, human TIMP Panel 2, and human TGFβ 1,2,3 magnetic bead kits (EMD Millipore) were used per manufacturer's instructions. Prior to plating, all samples tested for human TGFβ only were activated and neutralized with 1.0 N HCl and 1.0 N NaOH, respectively. Briefly, 25 μl of undiluted or treated cell culture supernatant samples were mixed with 25 μl of magnetic beads and allowed to incubate overnight at 4° C. while shaking. After washing the plates with wash buffer in a Biotek ELx405 washer, 25 μl of biotinylated detection antibody was added and incubated for 1 hour at room temperature while shaking. 25 μl of streptavidin-phycoerythrin conjugate was then added to the reaction mixture and incubated for another 30 minutes at room temperature while shaking. Following additional washes, beads were resuspended in sheath fluid, and fluorescence was quantified using a Luminex 200 instrument. Similarly, a custom magnetic Luminex assay kit of select analytes (R&D Systems) was used per manufacturer's instructions. Cell culture supernatants were prepared with a 2-fold dilution. 50 μl of diluted sample were added to 50 μl of provided micro-particle cocktail and incubated for 2 hours at room temperature while shaking. After washing with wash buffer, 50 μl of biotin antibody cocktail was added and incubated for 1 hour at room temperature while shaking. Following additional washes, 50 μl of diluted Streptavidin-PE was then added for incubation for 30 minutes at room temperature while shaking. The plate was then washed again and the micro-particles resuspended in 100 μl wash buffer. After an additional 2-minute incubation while shaking, the data was acquired using a Luminex 200 instrument.
(§2) In-vitro cultures of PF and cells in the iFA model were washed once with PBS and total RNA from the samples were extracted using the RNeasy Mini Kit (Qiagen) according to the manufacturer's instructions. For the lung slice cultures (LSC), tissues were snap-frozen after treatment and stored at −80° C. until RNA isolation. Lung slices were homogenized using a handheld homogenizer and passing the homogenate through a Qiashredder (Qiagen). Total RNA from the LSC and cells from the disease model were extracted using the RNeasy Mini Kit (Qiagen) according to the manufacturer's instructions. The RNA concentrations were measured on a NanoDrop ND-1000 spectrophotometer. Single-stranded cDNA was synthesized from 200 ng of total RNA using Superscript IV and random hexamer primers (Invitrogen) in a volume of 20 μl. cDNA was then used for qRT-PCR analysis. PCR reactions were performed using Taqman Gene Expression Assay mix (Applied Biosystems) according to the manufacturer's instructions.
qRT-PCR reactions were performed using the StepOnePlus (Applied Biosystems). Relative gene expression was calculated using the 2^−ΔΔCt method, with 18S Cat. #4331182 (Invitrogen) as housekeeping gene. For the RT^2qPCR arrays, cDNA from DMSO and AA5 treated iFA and was added to the RT^2 qPCR iTaq Universal SYBR green Master Mix (Biorad). 20 μl of the experimental cocktail was added to each well of the Fibrosis PCR (Qiagen). Real-Time PCR was performed on the StepOnePlus qPCR system (Applied Biosystems) using SYBR green detection according to the manufacturer's recommendations. All data from the PCR was collected and analyzed by SA Bioscience's PCR Array Data Analysis Web Portal.
(§3) Cells grown on coverslips were fixed in 4% paraformaldehyde (PFA) for 10 min at room temperature and washed three times with TBS buffer supplemented with 0.1% Tween 20 (TBST). Lung samples were fixed overnight in 4% PFA at room temperature, washed 3 times in PBS, dehydrated and then infiltrated and embedded with wax. Five-micron sections were collected on glass slides, deparaffinized and rehydrated. Heat-induced epitope retrieval was performed using 1 mM EDTA in a microwave. […]

HMGB1 = HMGB1 (ELISA, IF) in the iFA model
Method: (§4) Conditioned media at different time points of progression of the phenotype, and on prevention and resolution drug treatments were collected and quantification of protein was performed using the IBL man HMGB1 ELISA kit or LSBio NPTX1 ELISA kits per manufacturer's instructions. 10 μl of each supernatant sample was added to anti-HMGB1 polyclonal antibody-coated plate and incubated for 20 hours at 37° C. All liquid was then removed and the plate manually washed 5 times with wash buffer. 100 μl of enzyme conjugate was then added and incubated for 2 hours at room temperature. After washing again, color solution was added at 100 μl per well and incubated for 30 minutes at room temperature. Following an additional five washes, the plate was incubated with 90 μl of TMB substrate for another 15 minutes at 37° C. in the dark. The reaction was then stopped by addition 100 μl of stop solution. Absorbance was measured at 450 nm using a SpectraMAX Plate Reader. Data was analyzed using SoftMax Pro software.
as §3, with “rehydrated.” for “rehydrated. Heat-induced epitope retrieval was performed using 1 mM EDTA in a microwave.”

[1] = system: Idiopathic Pulmonary Fibrosis patient lung slices; assay: Ex vivo fibrotic lung slice culture (LSC) system
Method: as §1, §4, §2
All human samples were obtained in accordance with institute IRB. Tissue for lung slice experiments was obtained from patients with Idiopathic Pulmonary Fibrosis (IPF) at the time of lung transplant. […]

Cc1c(C(=O)Nc2nc3ccccc3s2)sc2nc3cc4c(cc3cc12)OCO4 [AA5]
Secreted levels of acute-phase response cytokines IL-6, IL-8 and IFNα (iFA model; AA5-prevention and AA5-resolution, luminex): increase
PTX3 protein (iFA model; AA5-prevention and AA5-resolution, over time): progressively increasing amounts
Acute-phase signaling secondary cytokines MCP-3, VEGF, CSF3 and GRO (iFA model; AA5 treated iFA model): increase
Gene expression of fibrotic markers α-SMA, Collagen I, TIMP-3 and POSTN (iFA model; AA5 treatment, confirmed by immunoblotting, luminex, immunofluorescence): down-regulation
Modulators of tissue repair PTX3 and CD163L1 (iFA model; within 24 hours of AA5-resolution treatment): upregulation
Cytoplasmic HMGB1 (IF staining) (HMGB1; AA5-prevention and AA5-resolution vs DMSO): absence or significantly reduced cytoplasmic HMGB1
Secreted levels of HMGB1 (HMGB1; iFA model, AA5p and AA5r vs DMSO): attenuated
Secretion of matrix degrading proteases MMP-9 and uPA ([1]; 10 μM AA5, 48 hours): increased secretion
ACTA-2, COL1A2 and TGF-β3 mRNA expression ([1]; 10 μM AA5, 48 hours, vs DMSO, not TGF-β1/2): significantly reduced
Secreted TGF-β3, TIMP-4 and POSTN protein ([1]; 10 μM AA5, 48 hours, not TGF-β1/2): decreased levels
NPTX1 mRNA and protein level ([1]; AA5-treated LSCs): upregulated
Scavenger receptor CD163L1 ([1]; AA5-treated LSCs): upregulated and secreted
HMGB1 immunostaining ([1]; AA5-treated LSCs vs DMSO): exclusively nuclear staining
Secreted HMGB1 (luminex) ([1]; AA5-treated LSCs, 48 hours): markedly decreased
Reduction of fibrosis-initiating SSEA4+ cells ([1]; AA5-treated LSCs, p value <0.001): > 50%
